Laboratory results: patent publication US8173638B2 (Boehringer Ingelheim International GmbH, priority 2006, dated 2012)
pEC50: −log10 of the molar value. Where two headings read alike, the source gives them in different places.

Target: T1, human CB2R (Homo sapiens, UniProt P34972)
T1 construct: host or cells: CHO cells
Assay: CB2R mediated modulation of cAMP synthesis
Format: cell-based
Settings: for agonistic activity: found through the use of the described assays (CB2 agonists), qualitative statement; for Emax: 0.5 h, read-out: Agonist Efficacy (%)
Summary of the method: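 Forskolin (10 uM)-driven cAMP in human CB2R-expressing CHO cells, read with DiscoverX-XS kit after 30 min compound exposure at 37 °C, 1 mM IBMX, 0.25% BSA. 100% defined as forskolin cAMP relative to 1 uM CP55940 inhibition. Agonist EC50 via four-parameter logistic model.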

[1] = CHO cells expressing human CB2R, cAMP inhibited by 1 uM CP55940 defined as 100%

T1 sequence (P34972 whole entry): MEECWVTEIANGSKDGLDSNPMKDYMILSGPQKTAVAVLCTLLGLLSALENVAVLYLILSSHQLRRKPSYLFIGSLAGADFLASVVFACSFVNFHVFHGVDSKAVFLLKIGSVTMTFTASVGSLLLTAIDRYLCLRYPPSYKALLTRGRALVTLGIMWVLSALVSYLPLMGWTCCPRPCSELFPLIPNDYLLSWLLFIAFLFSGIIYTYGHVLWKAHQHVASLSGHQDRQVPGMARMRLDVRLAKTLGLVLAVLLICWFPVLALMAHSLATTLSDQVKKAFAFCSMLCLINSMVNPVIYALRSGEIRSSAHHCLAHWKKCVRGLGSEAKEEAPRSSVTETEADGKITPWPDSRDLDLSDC

| SMILES | agonistic activity | Emax [1] | pEC50 (read-out: hCB2 cAMP EC50) | also measured |
| --- | --- | --- | --- | --- |
| CC(C)(C)c1cc(NC(=O)N2CCCN(C(=O)C3CCCCC3)CC2)no1 [4-Cyclohexanecarbonyl-[1,4]diazepane-1-carboxylic acid (5-tert-butyl-isoxazol-3-yl)-amide] | agonistic activity | – | – | – |
| O=C(Nc1ccc2ccccc2c1)N1CCCN(C(=O)C2CCCCC2)CC1 [4-Cyclohexanecarbonyl-[1,4]diazepane-1-carboxylic acid naphthalen-2-ylamide] | agonistic activity | – | – | – |
| CC(C)(C)c1cc(NC(=O)N2CCCN(C(=O)C3CCCC3)CC2)no1 [4-Cyclopentanecarbonyl-[1,4]diazepane-1-carboxylic acid (5-tert-butyl-isoxazol-3-yl)-amide] | agonistic activity | – | – | – |
| O=C(Nc1ccc2ccccc2c1)N1CCCN(C(=O)C2CCCC2)CC1 [4-Cyclopentanecarbonyl-[1,4]diazepane-1-carboxylic acid naphthalen-2-ylamide] | agonistic activity | – | – | – |
| CC(C)(C)c1cc(NC(=O)N2CCCN(C(=O)CN3CCS(=O)(=O)CC3)CC2)on1 [4-[2-(1,1-Dioxo-1λ^6-thiomorpholin-4-yl)-acetyl]-[1,4]diazepane-1-carboxylic acid (3-tert-butyl-isoxazol-5-yl)-amide] | agonistic activity | – | – | – |
| CC(C)(C)c1cc(NC(=O)N2CCCN(C(=O)CN3CCC(F)(F)CC3)CC2)no1 [4-[2-(4,4-Difluoro-piperidin-1-yl)-acetyl]-[1,4]diazepane-1-carboxylic acid (5-tert-butyl-isoxazol-3-yl)-amide] | agonistic activity | – | – | – |
| C[C@@H]1CN(CC(=O)N2CCCN(C(=O)Nc3cc(C(C)(C)C)on3)CC2)C[C@H](C)O1 [4-[2-((2R,6S)-2,6-Dimethyl-morpholin-4-yl)-acetyl]-[1,4]diazepane-1-carboxylic acid (5-tert-butyl-isoxazol-3-yl)-amide] | agonistic activity | – | – | – |
| CCC(C)c1ccc(NC(=O)N2CCCN(C(=O)CC3CCCC3)CC2)cc1 (stereo not shown) [Compound 52, 4-(2-Cyclopentyl-acetyl)-[1,4]diazepane-1-carboxylic acid (4-sec-butyl-phenyl)-amide] | – | – | – | pEC50: 8.15; Emax (CHO): 98% |
| CC(C)c1ccc(NC(=O)N2CCCN(C(=O)CC(C)(C)C)CC2)cc1 [Compound 60, 4-(3,3-Dimethyl-butyryl)-[1,4]diazepane-1-carboxylic acid (4-isopropyl-phenyl)-amide] | – | – | – | pEC50: 7.11; Emax (CHO): 71% |
| O=C(Nc1ccc2ccccc2c1)N1CCCN(C(=O)C2CCCCC2)CC1 [Compound 68, 4-Cyclohexanecarbonyl-[1,4]diazepane-1-carboxylic acid naphthalen-2-ylamide] | – | 99% | 7.59 | – |
| O=C(Nc1ccc2ccccc2c1)N1CCCN(C(=O)c2ccc(Cl)cc2)CC1 [Compound 79, 4-(4-Chloro-benzoyl)-[1,4]diazepane-1-carboxylic acid naphthalen-2-ylamide] | – | 100% | 7.34 | – |
| O=C(Nc1ccc2ccccc2c1)N1CCCN(C(=O)c2ccc(Cl)c(Cl)c2)CC1 [Compound 86, 4-(3,4-Dichloro-benzoyl)-[1,4]diazepane-1-carboxylic acid naphthalen-2-ylamide] | – | 92% | 7.28 | – |
| N#Cc1ccc(C(=O)N2CCCN(C(=O)Nc3ccc4ccccc4c3)CC2)cc1 [Compound 88, 4-(4-Cyano-benzoyl)-[1,4]diazepane-1-carboxylic acid naphthalen-2-ylamide] | – | 97% | 7.44 | – |
| O=C(Nc1ccc2ccccc2c1)N1CCCN(C(=O)c2cc(Cl)ccc2Cl)CC1 [Compound 90, 4-(2,5-Dichloro-benzoyl)-[1,4]diazepane-1-carboxylic acid naphthalen-2-ylamide] | – | 91% | 7.70 | – |
| O=C(Nc1ccc2ccccc2c1)N1CCCN(C(=O)c2ccc(C(F)(F)F)cc2)CC1 [Compound 92, 4-(4-Trifluoromethyl-benzoyl)-[1,4]diazepane-1-carboxylic acid naphthalen-2-ylamide] | – | 96% | 7.85 | – |
| O=C(Nc1ccc2ccccc2c1)N1CCCN(C(=O)c2ccc(Cl)cc2Cl)CC1 [Compound 99, 4-(2,4-Dichloro-benzoyl)-[1,4]diazepane-1-carboxylic acid naphthalen-2-ylamide] | – | 102% | 7.00 | – |
| CC(C)(C)c1ccc(NC(=O)N2CCCN(C(=O)c3ccc(Cl)c(Cl)c3)CC2)cc1 [Compound 110, 4-(3,4-Dichloro-benzoyl)-[1,4]diazepane-1-carboxylic acid (4-tert-butyl-phenyl)-amide] | – | 97% | 7.19 | – |

Further lines, with some results ahead:

| agonistic activity | Emax [1] | pEC50 (read-out: hCB2 cAMP EC50) | SMILES | also measured |
| --- | --- | --- | --- | --- |
| agonistic activity | – | – | CC(C)c1ccc(NC(=O)N2CCCN(C(=O)C3CCCCC3)CC2)cc1 [4-Cyclohexanecarbonyl-[1,4]diazepane-1-carboxylic acid (4-isopropyl-phenyl)-amide] | – |
| agonistic activity | – | – | O=C(Nc1ccc(C(F)(F)F)cc1)N1CCCN(C(=O)C2CCCCC2)CC1 [4-Cyclohexanecarbonyl-[1,4]diazepane-1-carboxylic acid (4-trifluoromethyl-phenyl)-amide] | – |
| agonistic activity | – | – | O=C(Nc1ccc(SC(F)(F)F)cc1)N1CCCN(C(=O)C2CCCCC2)CC1 [4-Cyclohexanecarbonyl-[1,4]diazepane-1-carboxylic acid (4-trifluoromethylsulfanyl-phenyl)-amide] | – |
| agonistic activity | – | – | CCCCc1ccc(NC(=O)N2CCCN(C(=O)C3CCCC3)CC2)cc1 [4-Cyclopentanecarbonyl-[1,4]diazepane-1-carboxylic acid (4-butyl-phenyl)-amide] | – |
| agonistic activity | – | – | CC(C)(C)c1ccc(NC(=O)N2CCCN(C(=O)C3CCCC3)CC2)cc1 [4-Cyclopentanecarbonyl-[1,4]diazepane-1-carboxylic acid (4-tert-butyl-phenyl)-amide] | – |
| agonistic activity | – | – | CC(C)c1ccc(NC(=O)N2CCCN(C(=O)C(C)(C)C)CC2)cc1 [4-pivaloyl-[1,4]diazepane-1-carboxylic acid (4-isopropyl-phenyl)-amide] | – |
| – | 102% | 7.64 | CC(C)c1ccc(NC(=O)N2CCCN(C(=O)C3CCCCC3)CC2)cc1 [Compound 34, 4-Cyclohexanecarbonyl-[1,4]diazepane-1-carboxylic acid (4-isopropyl-phenyl)-amide] | – |
| – | 95% | 7.54 | CC(C)c1ccc(NC(=O)N2CCCN(C(=O)CC3CCCCC3)CC2)cc1 [Compound 36, 4-(2-Cyclohexyl-acetyl)-[1,4]diazepane-1-carboxylic acid (4-isopropyl-phenyl)-amide] | – |
| – | 95% | 7.37 | CC(C)c1ccc(NC(=O)N2CCCN(C(=O)c3ccc(Cl)cc3)CC2)cc1 [Compound 41, 4-(4-Chloro-benzoyl)-[1,4]diazepane-1-carboxylic acid (4-isopropyl-phenyl)-amide] | – |
| – | 100% | 7.28 | O=C(CC1CCCC1)N1CCCN(C(=O)Nc2ccc3ccccc3c2)CC1 [Compound 48, 4-(2-Cyclopentyl-acetyl)-[1,4]diazepane-1-carboxylic acid (2-naphthyl)-amide] | – |
| – | 73% | 7.32 | CCCCCc1ccc(NC(=O)N2CCCN(C(=O)CC3CCCC3)CC2)cc1 [Compound 49, 4-(2-Cyclopentyl-acetyl)-[1,4]diazepane-1-carboxylic acid (4-n-pentyl-phenyl)-amide] | – |
| – | 105% | 7.05 | CC(C)c1ccc(NC(=O)N2CCCN(C(=O)CCC3CC3)CC2)cc1 [Compound 55, 4-(3-Cyclopropyl-propionyl)-[1,4]diazepane-1-carboxylic acid (4-isopropyl-phenyl)-amide] | – |
| – | 103% | 7.66 | CC(C)c1ccc(NC(=O)N2CCCN(C(=O)CCC3CCCCC3)CC2)cc1 [Compound 56, 4-(3-Cyclohexyl-propionyl)-[1,4]diazepane-1-carboxylic acid (4-isopropyl-phenyl)-amide] | – |
| – | 87% | 7.15 | O=C(Nc1ccc(C(F)(F)F)cc1)N1CCCN(C(=O)C2CCC(F)(F)CC2)CC1 [Compound 78, 4-(4,4-Difluoro-cyclohexanecarbonyl)-[1,4]diazepane-1-carboxylic acid (4-trifluoromethyl-phenyl)-amide] | – |
| – | 99% | 7.92 | O=C(Nc1ccc(SC(F)(F)F)cc1)N1CCCN(C(=O)C2CCCCC2)CC1 [Compound 80, 4-Cyclohexanecarbonyl-[1,4]diazepane-1-carboxylic acid (4-trifluoromethylsulfanyl-phenyl)-amide] | – |
| – | 96% | 6.92 | O=C(Nc1ccc(SC(F)(F)F)cc1)N1CCCN(C(=O)C2CCOCC2)CC1 [Compound 81, 4-(Tetrahydro-pyran-4-carbonyl)-[1,4]diazepane-1-carboxylic acid (4-trifluoromethylsulfanyl-phenyl)-amide] | – |
| – | 92% | 7.44 | O=C(CC1CCCC1)N1CCCN(C(=O)Nc2ccc(SC(F)(F)F)cc2)CC1 [Compound 82, 4-(2-cyclopentyl-acetyl)-[1,4]diazepane-1-carboxylic acid (4-trifluoromethylsulfanyl-phenyl)-amide] | – |
| – | 98% | 7.05 | CC(C)CCC(=O)N1CCCN(C(=O)Nc2ccc3ccccc3c2)CC1 [Compound 94, 4-(4-Methyl-pentanoyl)-[1,4]diazepane-1-carboxylic acid naphthalen-2-ylamide] | – |
| – | 94% | 7.00 | CC(C)(C)c1ccc(NC(=O)N2CCCN(C(=O)CC3CCCCC3)CC2)cc1 [Compound 107, 4-(2-Cyclohexyl-acetyl)-[1,4]diazepane-1-carboxylic acid (4-tert-butyl-phenyl)-amide] | – |
| – | 96% | 7.68 | CC(C)(C)c1ccc(NC(=O)N2CCCN(C(=O)CCC3CCCCC3)CC2)cc1 [Compound 108, 4-(3-Cyclohexyl-propionyl)-[1,4]diazepane-1-carboxylic acid (4-tert-butyl-phenyl)-amide] | – |
